# Test results taken from patent US11053204B2, “Pyrimidinyloxy benzene derivatives as herbicides” (FMC Corporation, priority 2015, dated 2021).
# Key:
# Assay in all cases: Test C postemergence, plant response rating
# Format in all cases: in vivo
# [1] = system: blackgrass (Alopecurus myosuroides); conditions: for Plant response rating, Blackgrass: scale 0 to 100; for Blackgrass plant response rating: scale 0 to 100 (0 no effect, 100 complete control)
# How it was run: (§1)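 Preemergence: seeds sown in loam–sand blend or silt loam and sprayed with test chemicals in a non-phytotoxic surfactant-containing solvent. Postemergence: potted plants at 2–18 cm (1–4-leaf stage) sprayed with the same formulation. After 13–15 d in greenhouse, visual rating versus controls on 0 (no effect) to 100 (complete control) scale.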
# [2] = system: oilseed rape (Brassica napus); conditions: for Oilseed Rape plant response rating: scale 0 to 100 (0 no effect, 100 complete control)
# How it was run: as §1
# [3] = system: lambsquarters (Chenopodium album); conditions: for Lambsquarters plant response rating: scale 0 to 100 (0 no effect, 100 complete control)
# How it was run: as §1
# [4] = system: waterhemp (common waterhemp, Amaranthus rudis); conditions: for Waterhemp plant response rating: scale 0 to 100 (0 no effect, 100 complete control)
# How it was run: as §1
# [5] = system: crabgrass, large (large crabgrass, Digitaria sanguinalis); conditions: for Crabgrass, Large plant response rating: scale 0 to 100 (0 no effect, 100 complete control)
# How it was run: as §1
# [6] = system: oat, wild (wild oat Avena fatua); conditions: for Oat, Wild plant response rating: scale 0 to 100 (0 no effect, 100 complete control)
# How it was run: as §1
# [7] = system: corn (Zea mays); conditions: for Corn plant response rating: scale 0 to 100 (0 no effect, 100 complete control)
# How it was run: as §1
# [8] = system: soybean (Glycine max); conditions: for Soybean plant response rating: scale 0 to 100 (0 no effect, 100 complete control)
# How it was run: as §1
# [9] = system: wheat (winter wheat, Triticum aestivum); conditions: for Wheat plant response rating: scale 0 to 100 (0 no effect, 100 complete control)
# How it was run: as §1
# [10] = system: barnyardgrass (Echinochloa crus-galli); conditions: for Plant response rating, Barnyardgrass: scale 0 to 100; for Barnyardgrass plant response rating: scale 0 to 100 (0 no effect, 100 complete control)
# How it was run: as §1
# [11] = system: ryegrass, Italian (Italian ryegrass, Lolium multiflorum); conditions: for Ryegrass, Italian plant response rating: scale 0 to 100 (0 no effect, 100 complete control)
# How it was run: as §1
# [12] = system: velvetleaf (Abutilon theophrasti); conditions: for Velvetleaf plant response rating: scale 0 to 100 (0 no effect, 100 complete control)
# How it was run: as §1
# [13] = system: ragweed (common ragweed, Ambrosia elatior); conditions: for Ragweed plant response rating: scale 0 to 100 (0 no effect, 100 complete control)
# How it was run: as §1
# [14] = system: kochia (Kochia scoparia); conditions: for Kochia plant response rating: scale 0 to 100 (0 no effect, 100 complete control)
# How it was run: as §1
# [15] = system: galium (catchweed bedstraw, Galium aparine); conditions: for Galium plant response rating: scale 0 to 100 (0 no effect, 100 complete control)
# How it was run: as §1
# [16] = system: nutsedge, yellow (yellow nutsedge, Cyperus esculentus); conditions: for Nutsedge, Yellow plant response rating: scale 0 to 100 (0 no effect, 100 complete control)
# How it was run: as §1
smiles,measurement,setting,value
N#CCCOC(=O)c1c(Br)cccc1Oc1ncc(Cl)cn1 [Compound 7],"Plant response rating, Blackgrass",[1]; 16 g ai/ha,0
same,"Plant response rating, Blackgrass",[1]; 31 g ai/ha,0
same,Blackgrass plant response rating,[1]; 62 g ai/ha,0
same,Blackgrass plant response rating,[1]; 125 g ai/ha,5
same,"Plant response rating, Oilseed Rape","[2]; 16 g ai/ha, scale 0 to 100",0
same,"Plant response rating, Oilseed Rape","[2]; 31 g ai/ha, scale 0 to 100",0
same,Oilseed Rape plant response rating,[2]; 62 g ai/ha,0
same,Oilseed Rape plant response rating,[2]; 125 g ai/ha,5
same,"Plant response rating, Lambsquarters","[3]; 16 g ai/ha, scale 0 to 100",5
same,"Plant response rating, Lambsquarters","[3]; 31 g ai/ha, scale 0 to 100",25
same,Lambsquarters plant response rating,[3]; 62 g ai/ha,30
same,Lambsquarters plant response rating,[3]; 125 g ai/ha,55
same,"Plant response rating, Waterhemp","[4]; 16 g ai/ha, scale 0 to 100",35
same,"Plant response rating, Waterhemp","[4]; 31 g ai/ha, scale 0 to 100",70
same,Waterhemp plant response rating,[4]; 62 g ai/ha,60
same,Waterhemp plant response rating,[4]; 125 g ai/ha,65
same,"Plant response rating, Crabgrass, Large","[5]; 16 g ai/ha, scale 0 to 100",5
same,"Plant response rating, Crabgrass, Large","[5]; 31 g ai/ha, scale 0 to 100",5
same,"Crabgrass, Large plant response rating",[5]; 62 g ai/ha,20
same,"Crabgrass, Large plant response rating",[5]; 125 g ai/ha,15
same,"Plant response rating, Oat, Wild","[6]; 16 g ai/ha, scale 0 to 100",0
same,"Plant response rating, Oat, Wild","[6]; 31 g ai/ha, scale 0 to 100",0
same,"Oat, Wild plant response rating",[6]; 62 g ai/ha,5
same,"Oat, Wild plant response rating",[6]; 125 g ai/ha,5
same,"Plant response rating, Corn","[7]; 16 g ai/ha, scale 0 to 100",5
same,"Plant response rating, Corn","[7]; 31 g ai/ha, scale 0 to 100",10
same,Corn plant response rating,[7]; 62 g ai/ha,10
same,Corn plant response rating,[7]; 125 g ai/ha,15
same,"Plant response rating, Soybean","[8]; 16 g ai/ha, scale 0 to 100",25
same,"Plant response rating, Soybean","[8]; 31 g ai/ha, scale 0 to 100",25
same,Soybean plant response rating,[8]; 62 g ai/ha,40
same,Soybean plant response rating,[8]; 125 g ai/ha,70
same,"Plant response rating, Wheat","[9]; 16 g ai/ha, scale 0 to 100",0
same,"Plant response rating, Wheat","[9]; 31 g ai/ha, scale 0 to 100",0
same,Wheat plant response rating,[9]; 62 g ai/ha,5
same,Wheat plant response rating,[9]; 125 g ai/ha,5
same,"Plant response rating, Barnyardgrass",[10]; 16 g ai/ha,5
same,"Plant response rating, Barnyardgrass",[10]; 31 g ai/ha,5
same,Barnyardgrass plant response rating,[10]; 62 g ai/ha,15
same,Barnyardgrass plant response rating,[10]; 125 g ai/ha,10
same,"Plant response rating, Ryegrass, Italian","[11]; 16 g ai/ha, scale 0 to 100",10
same,"Plant response rating, Ryegrass, Italian","[11]; 31 g ai/ha, scale 0 to 100",0
same,"Ryegrass, Italian plant response rating",[11]; 62 g ai/ha,30
same,"Ryegrass, Italian plant response rating",[11]; 125 g ai/ha,30
same,"Plant response rating, Velvetleaf","[12]; 16 g ai/ha, scale 0 to 100",5
same,"Plant response rating, Velvetleaf","[12]; 31 g ai/ha, scale 0 to 100",20
same,Velvetleaf plant response rating,[12]; 62 g ai/ha,35
same,Velvetleaf plant response rating,[12]; 125 g ai/ha,40
same,"Plant response rating, Ragweed","[13]; 16 g ai/ha, scale 0 to 100",10
same,"Plant response rating, Ragweed","[13]; 31 g ai/ha, scale 0 to 100",20
same,Ragweed plant response rating,[13]; 62 g ai/ha,20
same,Ragweed plant response rating,[13]; 125 g ai/ha,25
same,"Plant response rating, Kochia","[14]; 16 g ai/ha, scale 0 to 100",0
same,"Plant response rating, Kochia","[14]; 31 g ai/ha, scale 0 to 100",30
same,Kochia plant response rating,[14]; 62 g ai/ha,25
same,Kochia plant response rating,[14]; 125 g ai/ha,20
same,"Plant response rating, Galium","[15]; 16 g ai/ha, scale 0 to 100",0
same,"Plant response rating, Galium","[15]; 31 g ai/ha, scale 0 to 100",0
same,Galium plant response rating,[15]; 62 g ai/ha,10
same,Galium plant response rating,[15]; 125 g ai/ha,40
same,"Plant response rating, Nutsedge, Yellow","[16]; 16 g ai/ha, scale 0 to 100",0
same,"Plant response rating, Nutsedge, Yellow","[16]; 31 g ai/ha, scale 0 to 100",0
same,"Nutsedge, Yellow plant response rating",[16]; 62 g ai/ha,5
same,"Nutsedge, Yellow plant response rating",[16]; 125 g ai/ha,5
FC(F)(F)CCCCc1c(Br)cccc1Oc1ncc(Cl)cn1 [Compound 138],"Plant response rating, Blackgrass",[1]; 16 g ai/ha,5
same,"Plant response rating, Blackgrass",[1]; 31 g ai/ha,35
same,Blackgrass plant response rating,[1]; 62 g ai/ha,10
same,Blackgrass plant response rating,[1]; 125 g ai/ha,65
same,"Plant response rating, Oilseed Rape","[2]; 16 g ai/ha, scale of 0 to 100",70
same,"Plant response rating, Oilseed Rape","[2]; 31 g ai/ha, scale 0 to 100",85
same,Oilseed Rape plant response rating,[2]; 62 g ai/ha,95
same,Oilseed Rape plant response rating,[2]; 125 g ai/ha,100
same,"Plant response rating, Lambsquarters","[3]; 16 g ai/ha, scale of 0 to 100",65
same,"Plant response rating, Lambsquarters","[3]; 31 g ai/ha, scale 0 to 100",90
same,Lambsquarters plant response rating,[3]; 62 g ai/ha,95
same,Lambsquarters plant response rating,[3]; 125 g ai/ha,100
same,"Plant response rating, Waterhemp","[4]; 16 g ai/ha, scale of 0 to 100",98
same,"Plant response rating, Waterhemp","[4]; 31 g ai/ha, scale 0 to 100",98
same,Waterhemp plant response rating,[4]; 125 g ai/ha,100
same,"Plant response rating, Crabgrass, Large","[5]; 16 g ai/ha, scale of 0 to 100",35
same,"Plant response rating, Crabgrass, Large","[5]; 31 g ai/ha, scale 0 to 100",65
same,"Crabgrass, Large plant response rating",[5]; 62 g ai/ha,85
same,"Crabgrass, Large plant response rating",[5]; 125 g ai/ha,95
same,"Plant response rating, Oat, Wild","[6]; 16 g ai/ha, scale of 0 to 100",10
same,"Plant response rating, Oat, Wild","[6]; 31 g ai/ha, scale 0 to 100",55
same,"Oat, Wild plant response rating",[6]; 62 g ai/ha,50
same,"Oat, Wild plant response rating",[6]; 125 g ai/ha,70
same,"Plant response rating, Corn","[7]; 16 g ai/ha, scale of 0 to 100",15
same,"Plant response rating, Corn","[7]; 31 g ai/ha, scale 0 to 100",20
same,Corn plant response rating,[7]; 62 g ai/ha,25
same,Corn plant response rating,[7]; 125 g ai/ha,30
same,"Plant response rating, Soybean","[8]; 16 g ai/ha, scale of 0 to 100",35
same,"Plant response rating, Soybean","[8]; 31 g ai/ha, scale 0 to 100",55
same,Soybean plant response rating,[8]; 62 g ai/ha,60
same,Soybean plant response rating,[8]; 125 g ai/ha,55
same,"Plant response rating, Wheat","[9]; 16 g ai/ha, scale of 0 to 100",5
same,"Plant response rating, Wheat","[9]; 31 g ai/ha, scale 0 to 100",5
same,Wheat plant response rating,[9]; 125 g ai/ha,35
same,"Plant response rating, Ryegrass, Italian","[11]; 16 g ai/ha, scale of 0 to 100",5
same,"Plant response rating, Ryegrass, Italian","[11]; 31 g ai/ha, scale 0 to 100",5
same,"Ryegrass, Italian plant response rating",[11]; 62 g ai/ha,30
same,"Ryegrass, Italian plant response rating",[11]; 125 g ai/ha,35
same,"Plant response rating, Velvetleaf","[12]; 16 g ai/ha, scale of 0 to 100",10
same,"Plant response rating, Velvetleaf","[12]; 31 g ai/ha, scale 0 to 100",35
same,Velvetleaf plant response rating,[12]; 125 g ai/ha,75
same,"Plant response rating, Ragweed","[13]; 16 g ai/ha, scale of 0 to 100",0
same,"Plant response rating, Ragweed","[13]; 31 g ai/ha, scale 0 to 100",30
same,Ragweed plant response rating,[13]; 62 g ai/ha,35
same,Ragweed plant response rating,[13]; 125 g ai/ha,75
same,"Plant response rating, Kochia","[14]; 16 g ai/ha, scale of 0 to 100",75
same,"Plant response rating, Kochia","[14]; 31 g ai/ha, scale 0 to 100",85
same,Kochia plant response rating,[14]; 62 g ai/ha,95
same,Kochia plant response rating,[14]; 125 g ai/ha,98
same,"Plant response rating, Galium","[15]; 16 g ai/ha, scale of 0 to 100",65
same,"Plant response rating, Galium","[15]; 31 g ai/ha, scale 0 to 100",80
same,Galium plant response rating,[15]; 62 g ai/ha,80
same,Galium plant response rating,[15]; 125 g ai/ha,85
same,"Plant response rating, Nutsedge, Yellow","[16]; 16 g ai/ha, scale of 0 to 100",0
same,"Plant response rating, Nutsedge, Yellow","[16]; 31 g ai/ha, scale 0 to 100",0
same,"Nutsedge, Yellow plant response rating",[16]; 62 g ai/ha,10
same,"Nutsedge, Yellow plant response rating",[16]; 125 g ai/ha,30
